In patent publication US8669254B2, “Pyridine, pyridazine, pyrimidine or pyrazine carboxamides as HDL-cholesterol raising agents” (Hoffman-La Roche Inc., priority 2010, dated 2014):
Read-outs that look alike come from different tables or passages of the source.

Legend:
ABCA1 protein = test: Detection of upregulation of ABCA1 protein in cells (ApoA-I binding, high content image analysis); assay type: cell-based; details: THP-1 macrophage cells; for % increase of ABCA1 at 3 μM: compound at 3 μM, 24 hrs
Procedure: The ability of compounds of the invention to increase the level of ABCA1 protein is determined in replicate cultures of THP-1 macrophage cells in 96-well microplates. Cells are plated at an initial density of 100,000 cells/well in 100 μl medium and differentiated to adherent macrophages with the addition of PMA (100 nM) for 68 hrs in 10% fetal bovine serum, 3 μl/L of b-mercaptoethanol, RPMI-1640 medium. Then, cells are incubated with RPMI-1640 medium containing 1% FCS, 25 μg/ml acetylated LDL, for 24 hours at 37°. Following incubation with acetylated LDL, cells are washed twice with 50 μl PBS and incubated with 100 μl of RPMI-1640 medium containing the compound of interest solubilized in DMSO for an additional 24 hrs. The final DMSO concentration in presence of cells is maintained at 0.5%. ApoA-I binding assay using High Content Image Analysis is initiated by replacing with fresh medium, RPMI without Phenol Red, 0.2% BSA containing AlexaFluor®647 labeled ApoA-I for 2 h/37° C./5% CO2. Then, cells are fixed with 4% Formaldehyde in PBS (15 min, RT). Following Nuclei are stained with Hoechst solution (3 μM PBS) and Cytoplasm with Cell Mask Blue (2 μg/ml PBS), 15 min, RT. Finally the stained cells are fixed with a second round of formaldehyde treatment. Fixed stained cells are washed and kept in PBS at 4° C. and can be read immediately until one month after preparation.
The Alexa Fluor 647-labeled Apolipoprotein A-I (20 nM) was prepared as follows: Human recombinant Apolipoprotein A-I (ApoA-I) was exchanged to a buffer of 0.02 M NaHCO3 at pH 8.2 on an NAP desalting column (GE Healthcare) and brought to a concentration to 40 μM (1.13 mg/ml) by adjustment with the same buffer. The ApoA-I was fluorescently labeled by incubation with Alexa Fluor carboxylic acid succimidyl ester (Alexa Fluor 647, Invitrogen A-20006) at a 2:1 molar ratio (Alexa to ApoA-I) for 1 h under shaking at RT). The remaining unconjugated label was removed by buffer exchange to 0.02M NaHCO3 at pH 8.2.
Imaging and data collection were performed on an OPERA confocal microplate imaging reader using a 20× water immersion objective and UV360 or 405 laser to identify the cell nuclei and a 635 laser to identify the fluorescent ApoA-I. Eight fields of view are captured per well. Image capture and analysis was performed with the Acapella software. Background fluorescence detected in control wells without ApoA-I was subtracted.
Using XLfit3 program (ID Business Solutions Ltd. UK), the model 205 for Dose Response One Site is used to calculate the EC50 values. […] Particularly, the compounds of the present invention have EC50 values in a range of 0.1 μM to 3 μM.

human CB1 receptor = target: T1, human CB1 receptor (Homo sapiens, UniProt P21554); test: CB1 receptor affinity ([3H]-CP-55,940 displacement); assay type: binding; details: read-out: CB1 receptor affinity [% inhibition @ 10 μM]
T1 construct: expressed in transfected cells; host or cells: human embryonic kidney (HEK) cells, Semliki Forest Virus system, membrane preparation
Procedure: (§1) The affinity of the compounds of the invention for cannabinoid receptors was determined using membrane preparations of human embryonic kidney (HEK) cells in which the human CB1 receptor is transiently transfected using a Semliki Forest Virus system in conjunction with [3H]-CP-55,940 as radioligand. After incubation of freshly prepared cell membrane preparation with the [^3H]-ligand, with or without addition of compounds of the invention, separation of bound and free ligand was performed by filtration over glass fiber filters. Radioactivity on the filter was measured by scintillation counting.
(§2) The ability of the compounds to displace the radioligand [^3H]-CP-55,940 was measured at a concentration of 10 μM and values provided as [% inhibition @ 10 μM] both for the CB 1 and CB2 receptor assay, The lower % inhibition is, the lower the likelihood of side effects based on CB1 or CB2 receptor inhibition is.

human CB2 receptor = target: T2, human CB2 receptor (Homo sapiens, UniProt P34972); test: CB2 receptor affinity ([3H]-CP-55,940 displacement); assay type: binding; details: HEK cell membranes, radioligand [3H]-CP-55,940
T2 construct: expressed in transfected cells; host or cells: human embryonic kidney (HEK) cells, Semliki Forest Virus system, membrane preparation
Procedure: as §1, with “cannabinoid CB2” for “cannabinoid”, “CB2” for “CB1”, “[^3H]-CP-55,940” for “[3H]-CP-55,940”
as §2

[1] = 10 μM, HEK cell membranes, radioligand [3H]-CP-55,940

T1 sequence (P21554 whole entry): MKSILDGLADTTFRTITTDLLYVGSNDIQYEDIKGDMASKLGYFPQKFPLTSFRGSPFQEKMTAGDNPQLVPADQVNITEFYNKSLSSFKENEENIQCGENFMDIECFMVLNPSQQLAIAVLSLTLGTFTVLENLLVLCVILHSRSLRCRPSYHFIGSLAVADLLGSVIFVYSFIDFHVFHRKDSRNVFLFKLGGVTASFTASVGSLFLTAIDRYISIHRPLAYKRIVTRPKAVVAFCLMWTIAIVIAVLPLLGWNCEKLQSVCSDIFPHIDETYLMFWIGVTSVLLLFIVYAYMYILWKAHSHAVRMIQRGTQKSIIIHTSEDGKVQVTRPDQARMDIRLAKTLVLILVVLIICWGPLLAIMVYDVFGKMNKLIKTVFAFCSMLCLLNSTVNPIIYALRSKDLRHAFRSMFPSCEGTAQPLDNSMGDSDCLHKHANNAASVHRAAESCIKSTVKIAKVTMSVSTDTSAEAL
T2 sequence (P34972 whole entry): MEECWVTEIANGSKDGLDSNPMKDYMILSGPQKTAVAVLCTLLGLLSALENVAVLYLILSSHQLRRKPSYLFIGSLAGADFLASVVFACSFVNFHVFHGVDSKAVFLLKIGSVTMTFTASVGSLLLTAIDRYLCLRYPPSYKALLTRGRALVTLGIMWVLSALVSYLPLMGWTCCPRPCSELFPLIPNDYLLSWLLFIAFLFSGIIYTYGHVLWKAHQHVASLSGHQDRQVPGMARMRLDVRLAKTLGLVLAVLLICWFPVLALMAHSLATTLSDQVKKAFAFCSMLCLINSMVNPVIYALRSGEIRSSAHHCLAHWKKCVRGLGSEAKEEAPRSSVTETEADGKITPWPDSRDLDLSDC

Row | SMILES | % increase of ABCA1 at 3 μM (ABCA1 protein) | melting point | inhibition at 10 µM (human CB1 receptor; [1]) | inhibition at 10 µM (human CB2 receptor) | EC50 (ABCA1 protein; ABCA1 protein detection assay) | inhibition at 10 µM (human CB1 receptor)
1 | CO/N=C1\CCCC[C@@H]1NC(=O)c1cnc(O[C@@H](C)C(F)(F)F)c(-c2ccc(Cl)cc2)n1 [Example 27, 6-(4-Chlorophenyl)-N-((S,E)-2-(methoxyimino)cyclohexyl)-5-((S)-1,1,1-trifluoropropan-2-yloxy)pyrazine-2-carboxamide] | 65% @ 3 μM | 120 to 123 °C | 21% | 21% | – | –
2 | CO/N=C1\CCCC[C@@H]1NC(=O)c1ncc(O[C@@H](C)C(F)(F)F)c(-c2ccc(Cl)cc2)n1 [Example 28, 4-(4-Chlorophenyl)-N-((S,E)-2-(methoxyimino)cyclohexyl)-5-((S)-1,1,1-trifluoropropan-2-yloxy)pyrimidine-2-carboxamide] | 86.5% @ 3 μM | 180 to 182 °C | 34.4% | 18% | 780 nM | –
3 | CO/N=C(/CNC(=O)c1cnc(OCC(F)(F)F)c(-c2ccc(Cl)c(Cl)c2)c1)C(F)(F)F [Example 15, 5-(3,4-Dichloro-phenyl)-6-(2,2,2-trifluoro-ethoxy)-N-{3,3,3-trifluoro-2-[(Z)-methoxyimino]-propyl}-nicotinamide] | 50.5% @ 3 μM | 124 to 126 °C | 32% | 23.2% | – | –
4 | CO/N=C(/CNC(=O)c1cnc(O[C@@H](C)C(F)(F)F)c(-c2ccc(Cl)cc2)c1)C1CC1 [Example 31, 5-(4-Chloro-phenyl)-N-{2-cyclopropyl-2-[(E)-methoxyimino]-ethyl}-6-((S)-2,2,2-trifluoro-1-methyl-ethoxy)-nicotinamide] | 74.5% @ 3 μM | 103 to 106 °C | – | 3.6% | – | 39.3%
5 | CO/N=C1\CCCC[C@@H]1NC(=O)c1cc(-c2ccc(Cl)cc2)c(O[C@@H](C)C(F)(F)F)cn1 [Example 29, 4-(4-Chlorophenyl)-N-((S,E)-2-(methoxyimino)cyclohexyl)-5-((S)-1,1,1-trifluoropropan-2-yloxy)picolinamide] | 53.4% @ 3 μM | 123 to 125 °C | 35.5% | 33% | – | –
